# Measured values reported in patent US11407717B2, “Benzimidazole derivatives and use thereof as IDH1 inhibitors” (KPC PHARMACEUTICALS, INC., priority 2018, dated 2022).
# Read-outs that look alike come from different tables or passages of the source.
# Experiments:
# [1] = biological target: IDH1(R132H) (Homo sapiens, UniProt O75874, R132H); assay: IDH1 in vitro enzyme activity test (IDH1 R132H); format: biochemical; settings: 1500 μM α-KG + 15 μM NADPH
# Description: (§1) The IDH1 mutant catalyzes the NADPH-dependent reduction of α-KG (α-ketoglutarate) to 2-HG (2-hydroxyglutarate), and the consumed NADPH can be read by fluorescence.
# (§2) Basic reaction buffer: 50 mM KH2PO4, pH 7.5, 10 mM MgCl2, 10% glycerol, 150 mM NaCl, 0.05% BSA (bovine serum albumin), 2 mM b-ME (2-mercaptoethanol), 0.003% Brij35 (polyethylene glycol lauryl ether)
# (§3) Substrates and cofactors: • IDH1 wt (wild type): 65 μM isocitrate+50 μM NADP • IDH1(R132H): 1500 μM α-KG+15 μM NADPH • IDH1(R132C): 500 μM α-KG+15 μM NADPH
# (§4) 1.33× enzyme (no enzyme in the control well), buffer, and NADP or NADPH (control well) were added into the wells of the reaction plate. The test compound was dissolved in 100% DMSO and then added to the enzyme mixture (Echo550, nanoliter level), and incubated for 60 minutes after simple centrifugation. A mixture of 4× substrate and cofactor were added to start the reaction. After simple centrifugation, the plate was incubated under shaking at room temperature for 45 minutes. A mixture of 3× lipoamide dehydrogenase and Resazurin was prepared, added to the reaction solution to test the amount of NADPH generated or remaining, and incubated at room temperature for 10 minutes after simple centrifugation. Multifunctional microplate reader Envision was used to measure (Ex/Em=535/590 nm).
# [2] = biological target: IDH1(R132C) (Homo sapiens, UniProt O75874, R132C); assay: IDH1 in vitro enzyme activity test (IDH1 R132C); format: biochemical; settings: 500 μM α-KG + 15 μM NADPH
# IDH1(R132C), sequence (O75874 whole entry R132C): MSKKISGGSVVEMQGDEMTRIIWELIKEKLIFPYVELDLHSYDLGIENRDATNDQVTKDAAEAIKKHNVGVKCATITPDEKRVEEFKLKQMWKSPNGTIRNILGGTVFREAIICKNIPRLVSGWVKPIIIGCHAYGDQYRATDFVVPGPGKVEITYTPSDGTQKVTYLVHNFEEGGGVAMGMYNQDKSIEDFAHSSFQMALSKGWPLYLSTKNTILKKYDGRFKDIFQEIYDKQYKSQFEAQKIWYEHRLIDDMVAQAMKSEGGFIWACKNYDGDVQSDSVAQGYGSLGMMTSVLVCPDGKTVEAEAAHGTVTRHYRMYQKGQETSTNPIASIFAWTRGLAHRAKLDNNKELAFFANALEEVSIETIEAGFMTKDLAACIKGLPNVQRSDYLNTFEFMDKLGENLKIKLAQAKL
# Description: as §1, §2, §3, §4
# [3] = biological target: IDH1 wt (wild type) (Homo sapiens, UniProt O75874); assay: IDH1 in vitro enzyme activity test (IDH1 wild type); format: biochemical; settings: 65 μM isocitrate + 50 μM NADP
# IDH1 wt (wild type), sequence (O75874 whole entry): as the sequence (O75874 whole entry R132C) above, with C132R counted along it
# Description: as §1, §2, §3, §4
# [4] = tested on: U87MG-IDH1-R132H cell strain; assay: IDH1 cytological activity test, 2HG content in cell culture supernatant by LC-MS; format: cell-based; settings: Homo sapiens, U-87 MG, 72 h; 2-HG in supernatant, 3 days incubation
# Description: In this study, the compound was incubated with the IDH1 mutant cell line, and the 2HG content in the cell culture supernatant was detected by LC-MS to determine the inhibitory activity of the compound on the IDH1 mutant. IDH1 catalyzes the […] of isocitrate to α-ketoglutarate (α-KG) in organisms, and the IDH1 mutant further catalyzes the reduction of α-KG to 2-hydroxyglutarate (2HG). The U87MG-IDH1-R132H cell strain is a stable transfected cell strain that can stably express IDH1-R132H mutant, obtained via screening by transfecting U87MG cells with IDH1-R132H, and the HT1080 cell strain contains an endogenous IDH1-R132C mutant. 1) The compound was diluted 3-fold with DMSO and then added to the cell culture plate, at a total of 10 concentrations, double duplicate holes for each concentration. The negative control well contains only DMSO, and the positive control well contained BAY1436032 at a final concentration of 5 μM. The final concentration of DMSO in all wells was 0.5%. 2) The IDH1 mutant cell line was seeded into a cell culture plate containing the compound at a density of 40,000 cells/well. The cells were incubated with the compound in a incubator at 37° C., 5% CO2 for 3 days. […]
# [5] = Evaluation of pharmacokinetics in mice; format: in vivo, CD-1 mice; settings: for AUC(0-t): read-out: Area under curve AUC0-last
# Description: 1) Experimental drug: Example 6;
# 2) Experimental animals: 8 male CD-1 mice aged 7-10 weeks, divided into 2 groups, 4 in each group;
# 3) Drug preparation: for the tail vein injection group, an appropriate amount of the drug was weighted, and dissolved in a mixed solvent of DMSO: 20% hydroxypropyl betacyclodextrin (HPbCD)=10:90 to prepare a 0.5 mg/mL solution; for the intragastric administration group, an appropriate amount of the drug was weighted, and dissolved in DMSO: polyoxyethylene castor oil EL (Cremophor EL):5% sulfobutyl cyclodextrin (Captisol)=5:10:85 to prepare a suspension.
# Animals in group 1 were given a single injection of the drug at a dose of 1 mg/kg and a concentration of 0.5 mg/mL via tail vein, and animals in group 2 were given a compound at a dose of 20 mg/kg and a concentration of 2 mg/mL via gavage. Plasma samples were cross-collected from the animals at 0.0833 (tail vein injection group only), 0.25, 0.5, 1, 2, 4, 6, 8 and 24 hours after administration. The LC-MS/MS method was used to determine the drug concentration in the plasma sample, and the kinetic parameters of the tested drug are shown in Table 4: […]
# IDH1(R132H), sequence (O75874 whole entry R132H): as the sequence (O75874 whole entry R132C) above, with C132H counted along it
smiles,measurement,setting,value
O=C(O)CCc1ccc2c(c1)nc(Nc1ccc(OC(F)(F)F)cc1)n2C(c1ccccc1)c1ccccc1 [Example 9],IC50,[1],21.9 nM
CC(C)(C)[C@H](c1ccccc1)n1c(Nc2ccc(OC(F)(F)F)cc2)nc2cc(CCC(=O)O)ccc21 [Example 11],IC50,[1],24.5 nM
C[C@H](c1ccccc1)n1c(Nc2ccc(OC(F)(F)F)cc2)nc2cc(CCC(=O)O)ccc21 [Example 1],IC50,[1],7.9 nM
same,IC50,[2],102 nM
same,IC50,[3],> 10000 nM
same,IC50,[4],92.8 nM
O=C(O)CCc1ccc2c(c1)nc(Nc1ccc(OC(F)(F)F)cc1)n2[C@@H](c1ccccc1)C1CC1 [Example 12],IC50,[1],15.7 nM
O=C(O)CCc1ccc2c(c1)nc(Nc1ccc(OC(F)(F)F)cc1)n2[C@@H]1CCc2ccccc21 [Example 8],IC50,[1],2.88 nM
C[C@H](c1ccc(F)cc1)n1c(Nc2ccc(OC(F)(F)F)cc2)nc2cc(CCC(=O)O)ccc21 [Example 4],IC50,[1],126 nM
C[C@H](c1cccc(Cl)c1)n1c(Nc2ccc(OC(F)(F)F)cc2)nc2cc(CCC(=O)O)ccc21 [Example 7],IC50,[1],121 nM
O=C(O)CCc1ccc2c(c1)nc(Nc1ccc(OC(F)(F)F)cc1)n2[C@@H]1CCCc2ccccc21 [Example 6],IC50,[1],3.94 nM
same,IC50,[2],12.8 nM
same,IC50,[3],> 10000 nM
same,IC50,[4],38.2 nM
same,pharmacokinetic properties in mice (in words),[5]; mice,good pharmacokinetic properties
same,AUC(0-t),"[5]; mouse, iv, male CD-1 mice, tail vein injection, 1 mg/kg, plasma",15.5 µM·h
same,C0,"[5]; mouse, iv, male CD-1 mice, tail vein injection, 1 mg/kg, plasma, read-out: Initial concentration C0",3.54 µM
same,clearance,"[5]; mouse, plasma, iv, male CD-1 mice, tail vein injection, 1 mg/kg, read-out: Clearance Cl",2.17 mL/min/kg
same,half-life,"[5]; mouse, plasma, iv, male CD-1 mice, tail vein injection, 1 mg/kg, read-out: Half-life T1/2 (converted)",2.9 h
same,Vd,"[5]; mouse, plasma, iv, male CD-1 mice, tail vein injection, 1 mg/kg, read-out: Volume of distribution Vd",0.69 L/kg
same,bioavailability,"[5]; mouse, plasma, po, male CD-1 mice, intragastric 20 mg/kg vs tail vein 1 mg/kg, read-out: Bioavailability F",99.1%
same,Tmax,"[5]; mouse, plasma, po, male CD-1 mice, intragastric administration, 20 mg/kg, read-out: Time of highest concentration T1/2 (converted)",1 h
same,AUC(0-t),"[5]; mouse, po, male CD-1 mice, intragastric administration, 20 mg/kg, plasma",307 µM·h
same,Cmax,"[5]; mouse, po, male CD-1 mice, intragastric administration, 20 mg/kg, plasma, read-out: Highest concentration Cmax",33.4 µM
C[C@H](c1ccc(Cl)cc1)n1c(Nc2ccc(OC(F)(F)F)cc2)nc2cc(CCC(=O)O)ccc21 [Example 3],IC50,[1],320 nM
CC[C@H](c1ccccc1)n1c(Nc2ccc(OC(F)(F)F)cc2)nc2cc(CCC(=O)O)ccc21 [Example 5],IC50,[1],89.5 nM
C[C@@H](c1ccccc1)n1c(Nc2ccc(OC(F)(F)F)cc2)nc2cc(CCC(=O)O)ccc21 [Example 2],IC50,[1],464 nM
COc1ccccc1[C@@H](C)n1c(Nc2ccc(OC(F)(F)F)cc2)nc2cc(CCC(=O)O)ccc21 [Example 10],IC50,[1],344 nM
